This is an account of results in patent US20110059977A1 (priority 2006, published 2011).

Assay [1] has as its system Mycobacterium bovis BCG. The assay can be described thus: microbe, parasite or virus in culture. Format: cell-based. The note with it: for MIC: Mycobacterium tuberculosis variant bovis BCG, BCG, 144 h.
The test system of assay [2] is mc^2155 strain of M. smegmatis. The assay can be described thus: In vitro assays on Mycobacterium smegmatis (MIC, resazurin coloration microdilution method). In kind it is cell-based. How it is done: All molecules to be tested are prepared in dimethylsulfoxide (DMSO) at a concentration of 50 mg/ml and frozen until use.
20 μl of each dilution for each molecule are prepared in 100 μl of the Dubos culture medium (Difco, USA), and then distributed into 96 well plates, at a concentration between 100-0.75 μg/ml.
Control wells containing DMSO alone and ethambutol (Etibi®, Myambutol®) or ofloxacine (synthesis antibiotic belonging to the fluoroquinolone family) are included at a concentration between […].
The plates are covered, sealed and incubated at 37° C. during 48 hours.
Minimal Inhibitory Concentrations (MIC) are determined using the resazurin coloration microdilution method. The powdery resazurin salt (Sigma) is prepared at a concentration of 0.01% (weight/vol) in distilled water, and the solution is then sterilized by 0.22 μm membrane filtration, and kept at 4° C. during one week.
Into the plates as incubated during 48 hours, 30 μl of a resazurin solution are added in each well. The plates are then incubated at 37° C. during 24 hours. The colour variation from blue to pink is indicative of a decrease in resazurin which corresponds to the development of the bacterial colony. The MIC is determined as being the lowest concentration to prevent a colour change. The optical density of each well is measured at 530-630 nm using a micro-plate reader, The MIC is determined by drawing the dose-optical density response curve.

Assay [3] relates to M. smegmatis. The note with it: cited from earlier work.
The subject of assay [4] is M. avium 101. The assay is described as follows: In vitro tests on Mycobacterium avium (MIC in 7H11 agar medium). In kind it is cell-based. The note with it: for MIC: Mycobacterium avium, 101, read-out: MIC on Mycobacterium avium. The source says:
All tests are repeated three times.

Assay [5] deals with M. tuberculosis H37Rv. The assay can be described thus: In vitro tests on Mycobacterium tuberculosis (MIC in 7H11 agar medium).
Assay [6] concerns Mycobacterium bovis BCG. In kind it is in vivo, C57B1/6 female mice. The note with it: BCG-infected mice, 20 mg/kg/day intraperitoneally, 5 days.
Setting [7] is: read-out: Minimal Inhibitory Concentration MIC (μg/mL).
The mark [8] stands for this setting: read-out: Minimal Inhibitory Concentration MIC (μmol/L).
Setting [9] is: Mycobacterium bovis BCG, 6 days at 37° C., 7H9 medium.

≈ marks a conversion by molar mass, not a printed value. Where two headings read alike, the source gives them in different places.

In the case of `O=c1ccc2c3c(cc[n+]2[O-])c2ccccc2n13` [N-oxide-canthin-6-one], the “Activity against Mycobacterium bovis BCG in vitro (in words)” value (“Activity against Mycobacterium bovis BCG” for short) in assay [1] was “most active”. Further, the values for the MIC in assay [1] (setting [7]) and in assay [1] (setting [8]) were 2.5 to 5 µg/mL and 10.6 to 21.2 µmol/L, respectively.

In the case of ethambutol [reference compound], the “MIC (CMI) on Mycobacterium smegmatis” value in assay [2] (mc^2155 strain, Dubos medium, resazurin) came to 0.5 µg/mL. In assay [1] (setting [9]), the “Minimal Inhibitory Concentration MIC (μg/mL)” value was determined as 5 µg/mL and the “Minimal Inhibitory Concentration MIC (μmol/L)” value came to 24.5 µmol/L. In addition, the “Susceptibility of M. smegmatis” value in assay [3] (ethambutol 5 μg/mL) is given as “reacts”.

With `O=c1c2nccnc2c2nccc3c4ccccc4n1c32` [Pyrazine[e]canthin-6-one], the MIC worked out at 10 µg/mL in assay [1] (setting [7]) and 36.8 µmol/L in assay [1] (setting [8]).

For the compound `CC1COc2c(N3CCN(C)CC3)c(F)cc3c(=O)c(C(=O)O)cn1c23` (stereo not shown) [ofloxacin], the MIC in assay [2] (Mycolicibacterium smegmatis, mc^2155 strain, Dubos medium, resazurin, read-out: MIC (CMI) on Mycobacterium smegmatis) came out at 1 µg/mL (≈ 2.77 µM); in assay [4], 6.2 µg/mL (≈ 17.2 µM). The “MIC on Mycobacterium tuberculosis” value in assay [5] (H37Rv, 7H11 agar, 21-30 days at 37° C.) was 1 µg/mL (≈ 2.77 µM).

For `Nc1cc(=O)n2c3ccccc3c3ccnc1c32`, the MIC is 10 µg/mL in assay [1] (setting [7]) and 42.5 µmol/L in assay [1] (setting [8]).

For the compound `O=c1c2ccccc2c2c3c(cc[n+]2[O-])c2ccccc2n13` [N-oxide-benzo[e]canthin-6-one], the figures for the MIC in assay [1] (setting [7]) and in assay [1] (setting [8]) were 10 µg/mL and 34.8 µmol/L, respectively.

For the compound `O=c1ccc2c3c(cc[n+]2CCBr)c2ccccc2n13.[Br-]` [N-bromoéthyl-canthin-6-one bromide], in assay [1], the “Activity against Mycobacterium bovis BCG” value is recorded as “most active”. For the same compound, the MIC lay within 1 to 5 µg/mL in assay [1] (setting [7]) and 3 to 15.3 µmol/L in assay [1] (setting [8]).

As for `O=c1ccc2nccc3c4ccccc4n1c23` [Canthin-6-one], the “Efficiency against Mycobacterium smegmatis (in words)” value in assay [2] was “efficient”. In addition, the “Efficiency against Mycobacterium avium (in words)” value in assay [4] is “efficient”. Besides, the “Activity against Mycobacterium bovis BCG” value in assay [1] was “most active”; in assay [1] (listed as Canthin-5-one) it was “surprising efficiency”. Also, the MIC was 7.5 µg/mL in assay [1] (setting [7]) and 34.1 µmol/L in assay [1] (setting [8]). Besides, the “In vivo antituberculous efficiency (number of bacteria in spleen, liver and lungs; in words)” value in assay [6] is recorded as “efficient”. The “Efficiency against Mycobacterium tuberculosis (in words)” value in assay [5] is “efficient”.

In the case of `O=c1c2ccccc2c2nccc3c4ccccc4n1c32` [Benzo[e]canthin-6-one], the “Activity against Mycobacterium bovis BCG” value in assay [1] is reported as “most active”. Further, the values for the MIC in assay [1] (setting [7]) and in assay [1] (setting [8]) were 2.5 to 5 µg/mL and 9.2 to 18.4 µmol/L, respectively.

For `NNC(=O)c1ccncc1` [isoniazide, reference compound], the MIC was determined as 0.1 µg/mL (≈ 0.729 µM) in assay [4], 0.1 µg/mL in assay [1] (setting [7]) and 0.73 µmol/L in assay [1] (setting [8]). In addition, the “Minimal Inhibitory Concentration MIC (μg/mL)” value in assay [1] (setting [9]) is 0.1 µg/mL. Moreover, the “Susceptibility of M. smegmatis” value in assay [3] (isoniazide 10 μg/mL) was “resistant”.

Turning to `COc1ccc2c(c1)c1ccnc3ccc(=O)n2c31` [10-methoxy-canthin-6-one], the values for the MIC in assay [1] (setting [7]) and in assay [1] (setting [8]) were 7.5 µg/mL and 30 µmol/L, respectively.
